# Assays:
# [1] = transdermal melatonin patch on the skin of ABTT target area, research setting; conditions: patch with water, propylene glycol, lauric acid, hydroxypropylcellulose; non-rate-limiting membrane; contact area 1.0 cm^2
# Source text: As a solution to this problem, MEL was applied transdermally on the skin of ABTT target area 10 using a patch that contained, in a solvent formulation, water, propylene glycol, lauric acid, and hydroxypropylcellulose, and also comprised a non-rate-limiting membrane designed to have active contact with an area 1.0 cm^2.
# [2] = in vivo; cited from earlier work
# [3] = comparison of caffeine absorption into the blood stream from a patch on ABTT terminus and a patch on an upper arm; type: in vivo
# Protocol: One experimental technique used by Applicant to verify the efficacy of the systems, apparatuses, devices, processes, and methods disclosed herein was to compare absorption of a chemical into the blood stream. The chosen chemical was caffeine, and a comparison was made between distribution of caffeine in the body from a 15 mm by 15 mm patch placed on ABTT terminus 10 and a 15 mm by 15 mm patch placed on an upper arm. Caffeine concentration was measured in the same location on the body. […] As is evident from FIG. 106, the peak concentration of caffeine from the patch placed on the arm occurred five hours after placement of the patch, which peak concentration from the patch placed on ABTT terminus 10 was about 30 minutes after placement of the patch. […] Other compounds tested show similar results. […] In addition, it should be noted that use of a known patch would be disadvantageous if applied to ABTT terminus 10, because a lesser quantity of a drug is required to achieve the same results. […] In order to achieve the same effect at ABTT terminus 10 as application of a conventional patch in a conventional application, only about ⅔ the quantity of a drug is required for the same effect at ABTT terminus 10.
Compound,therapeutic effect of patch delivering melatonin through the skin of ABTT target area [1],elimination half-life [2],"time of peak concentration of caffeine after placement of the patch ([3]; 15 mm by 15 mm patch placed on ABTT terminus, FIG. 106 curve 1416)","time of peak concentration of caffeine after placement of the patch ([3]; 15 mm by 15 mm patch placed on upper arm, FIG. 106 curve 1414)","peak concentration from patch on ABTT terminus relative to peak concentration from patch on upper arm ([3]; 15 mm by 15 mm patches, concentration measured in the same location on the body)"
COc1ccc2[nH]cc(CCNC(C)=O)c2c1 [melatonin],shown to provide an intended therapeutic effect,short,,,
Cn1c(=O)c2c(ncn2C)n(C)c1=O [caffeine],,,about 30 minutes,five,more than twice as high
